In paper PMC10343887, “Structural Optimization of BIPPO Analogs as Potent Antimalarials” (Molecules, 2023):
Like-named read-outs stand apart in the source and are kept apart here.

Tests used:
[1] = system: P. falciparum; assay: Antimalarial screening against asexual blood stage P. falciparum; type: cell-based, Plasmodium falciparum; conditions: for IC50: Plasmodium falciparum, read-out: P. fal pIC50 (converted); for fold decreased antimalarial potency compared to 3 / fold potency decrease compared with 30: P. falciparum; for fold decreased antimalarial potency compared to 3: relative to 3; for fold potency decrease compared with 30: relative to 30
Description: Previously, Howard et al. reported (sub)micromolar activity against P. falciparum for a series of BIPPO analogs with benzyl substituents. To further understand the structure–activity relationship (SAR) of this interesting scaffold, close analogs of 3 with substituents at R^1–R^4 positions were tested against P. falciparum and human MRC-5 cells as the control for non-specific toxicity (Table 1).
The assay for antimalarial activity was carried out as described in detail in Pereira et al..

[2] = Non-specific toxicity control on human MRC-5 cells; type: cell-based
[3] = Metabolic stability in mouse liver microsomes (S9 fraction); type: in vitro ADME
Description: Thus, compounds 23, 28–30, 47a and 47b with high potencies (pIC50 > 6) were evaluated for their in vitro metabolic stability in human and mouse liver microsomes (S9 fraction) with diclofenac as a reference compound. As summarized in Figure 2, substituents in the R^4 position affect metabolic stability. […] Their stability against mouse liver microsomes is lower, especially for their Phase I metabolism; only 38% and 26% of the parent compounds are left for 23 and 29 after one hour of incubation. […] For the adamantanyl analogs 30, 47a and 47b, metabolic stability differs drastically, with Phase I identified as the main metabolic pathway. Analog 47b was metabolized for >95% within 30 min with mouse liver microsomes, while 90% of 47a (tert-butyl analog) was left after one hour of incubation.
The assay for metabolic stability in human and mouse liver microsomal fractions (S9) was performed as described.

[4] = potency against asexual blood stage of P. falciparum, average values n ≥ 2, s.d. < 0.3
[5] = human MRC-5 cells, average values n ≥ 2, s.d. < 0.3, read-out: MRC-5 pIC50 (converted)

Compound | IC50 [1, 4] [µM] | IC50 [2, 5] [µM] | further results
CC(C)c1n[nH]c2c(=O)[nH]c([C@H]3CC[C@@H](O)CC3)nc12 [compound 26, cis-5-(4-Hydroxycyclohexyl)-3-isopropyl-1,6-dihydro-7H-pyrazolo[4,3-d]pyrimidin-7-one] |  | > 63.1 | 
CC(C)c1n[nH]c2c(=O)[nH]c(C3CCN(C)CC3)nc12 [compound 25, 3-Isopropyl-5-(1-methylpiperidin-4-yl)-1,6-dihydro-7H-pyrazolo[4,3-d]pyrimidin-7-one diformate] | > 63.1 | > 63.1 | 
CC(C)c1n[nH]c2c(=O)[nH]c(Cc3ccncc3)nc12 [compound 4, 3-Isopropyl-5-(pyridin-4-ylmethyl)-1,6-dihydro-7H-pyrazolo[4,3-d]pyrimidin-7-one] | 7.94 | > 63.1 | fold decreased antimalarial potency compared to 3 [1]: six
CC(C)c1n[nH]c2c(=O)[nH]c(C3CCOCC3)nc12 [compound 24, 3-Isopropyl-5-(tetrahydro-2H-pyran-4-yl)-1,6-dihydro-7H-pyrazolo[4,3-d]pyrimidin-7-one] | 5.01 | > 63.1 | 
O=c1[nH]c(Cc2ccccc2)nc2c(C3CCCC3)n[nH]c12 [46b, 5-Benzyl-3-cyclopentyl-1,6-dihydro-7H-pyrazolo[4,3-d]pyrimidin-7-one] | 1.58 | > 63.1 | 
CC(C)c1c2nc(C34CC5CC(CC(C5)C3)C4)[nH]c(=O)c2nn1C [38b, 5-(Adamantan-1-yl)-3-isopropyl-2-methyl-2,6-dihydro-7H-pyrazolo[4,3-d]pyrimidin-7-one] | 2.51 | > 63.1 | fold potency decrease compared with 30 [1]: more than 15 fold
CCCCc1nc2c(C(C)C)n[nH]c2c(=O)[nH]1 [compound 21, 5-Butyl-3-isopropyl-1,6-dihydro-7H-pyrazolo[4,3-d]pyrimidin-7-one] | 1.26 | > 63.1 | 
Cc1nc2c(C(C)C)n[nH]c2c(=O)[nH]1 [compound 19, 3-Isopropyl-5-methyl-1,6-dihydro-7H-pyrazolo[4,3-d]pyrimidin-7-one] | 39.8 | > 63.1 | 
CC(C)c1n[nH]c2c(=O)[nH]c(C3CCNCC3)nc12 [compound 32, 3-Isopropyl-5-(piperidin-4-yl)-1,6-dihydro-7H-pyrazolo[4,3-d]pyrimidin-7-one] | > 63.1 |  | IC50 ([2]; human): > 63.1 µM
CC(C)c1n[nH]c2c(=O)[nH]c(-c3ccccc3)nc12 [compound 6, 3-Isopropyl-5-phenyl-1,6-dihydro-7H-pyrazolo[4,3-d]pyrimidin-7-one] | 31.6 | > 63.1 | fold decreased antimalarial potency compared to 3 [1]: 5- to 25 fold
CC(C)c1n[nH]c2c(=O)[nH]c(CCc3ccccc3)nc12 [compound 12, 3-Isopropyl-5-phenethyl-1,6-dihydro-7H-pyrazolo[4,3-d]pyrimidin-7-one] | 6.31 | > 63.1 | fold decreased antimalarial potency compared to 3 [1]: 5- to 25 fold
CC(C)c1nc2c(C(C)C)n[nH]c2c(=O)[nH]1 [compound 20, 3,5-Diisopropyl-1,6-dihydro-7H-pyrazolo[4,3-d]pyrimidin-7-one] | 3.98 | > 63.1 | 
CC(C)c1nn(C)c2c(=O)[nH]c(Cc3ccccc3)nc12 [37a, 5-Benzyl-3-isopropyl-1-methyl-1,6-dihydro-7H-pyrazolo[4,3-d]pyrimidin-7-one] | 10 | > 63.1 | 
O=c1[nH]c(C23CC4CC(CC(C4)C2)C3)nc2c(C3CCCC3)n[nH]c12 [47b, 5-(Adamantan-1-yl)-3-cyclopentyl-1,6-dihydro-7H-pyrazolo[4,3-d]pyrimidin-7-one] | < 1 | > 63.1 | fold potency decrease compared with 30 [1]: 2.5 fold; P. fal pIC50 [1, 4]: 6.2; metabolic stability relative to diclofenac ([3]; mouse Phase I assay): metabolized faster than diclofenac; metabolized ([3]; mouse liver microsomes, within 30 min): > 95%
CC(C)(C)c1n[nH]c2c(=O)[nH]c(Cc3ccccc3)nc12 [46a, 5-Benzyl-3-(tert-butyl)-1,6-dihydro-7H-pyrazolo[4,3-d]pyrimidin-7-one] | 1.58 | 39.8 | 
CC(C)c1n[nH]c2c(=O)[nH]c(C(C)(C)c3ccccc3)nc12 [compound 14, 3-Isopropyl-5-(2-phenylpropan-2-yl)-1,6-dihydro-7H-pyrazolo[4,3-d]pyrimidin-7-one] | 1 | > 63.1 | 
CC(C)c1n[nH]c2c(=O)[nH]cnc12 [compound 18, 3-Isopropyl-1,6-dihydro-7H-pyrazolo[4,3-d]pyrimidin-7-one] | > 63.1 | > 63.1 | 
CC(C)c1nn(C)c2c(=O)[nH]c(C34CC5CC(CC(C5)C3)C4)nc12 [38a, 5-(Adamantan-1-yl)-3-isopropyl-1-methyl-1,6-dihydro-7H-pyrazolo[4,3-d]pyrimidin-7-one] | > 63.1 | > 63.1 | fold potency decrease compared with 30 [1]: more than 400 fold
CC(C)(C)c1n[nH]c2c(=O)[nH]c(C34CC5CC(CC(C5)C3)C4)nc12 [47a, 5-(Adamantan-1-yl)-3-(tert-butyl)-1,6-dihydro-7H-pyrazolo[4,3-d]pyrimidin-7-one] |  | > 63.1 | fold potency decrease compared with 30 [1]: 4 fold; metabolic stability in mouse liver microsomes (in words) ([3]; mouse liver microsomes): favorable metabolic stability; parent compound left ([3]; mouse liver microsomes, one hour of incubation, phase not given): 90%
CC(C)c1c2nc(Cc3ccccc3)[nH]c(=O)c2nn1C [37b, 5-Benzyl-3-isopropyl-2-methyl-2,6-dihydro-7H-pyrazolo[4,3-d]pyrimidin-7-one] | 5.01 | > 63.1 | 
CC(C)c1n[nH]c2c(=O)[nH]c([C@H]3CC[C@H](O)CC3)nc12 [compound 27, trans-5-(4-Hydroxycyclohexyl)-3-isopropyl-1,6-dihydro-7H-pyrazolo [4,3-d]pyrimidin-7-one] | 5.01 | > 63.1 | 

The next lines start with results.

IC50 [1, 4] [µM] | Compound | IC50 [2, 5] [µM] | further results
> 63.1 | CC(C)c1n[nH]c2c(=O)[nH]c(-c3ccc(=O)n(C)c3)nc12 [compound 10, 3-Isopropyl-5-(1-methyl-6-oxo-1,6-dihydropyridin-3-yl)-1,6-dihydro-7H-pyrazolo[4,3-d]pyrimidin-7-one] | > 63.1 | 
> 63.1 | CC(C)c1n[nH]c2c(=O)[nH]c(-c3ccn(C)c(=O)c3)nc12 [compound 11, 3-Isopropyl-5-(1-methyl-2-oxo-1,2-dihydropyridin-4-yl)-1,6-dihydro-7H-pyrazolo[4,3-d]pyrimidin-7-one] | > 63.1 | 
> 63.1 | CC(C)c1n[nH]c2c(=O)[nH]c(-c3cscn3)nc12 [compound 9, 3-Isopropyl-5-(thiazol-4-yl)-1,6-dihydro-7H-pyrazolo[4,3-d]pyrimidin-7-one] | > 63.1 | 
1.26 | CC(C)c1n[nH]c2c(=O)[nH]c(C(C)c3ccccc3)nc12 (racemic) [compound 13, (racemic)-3-Isopropyl-5-(1-phenylethyl)-1,6-dihydro-7H-pyrazolo[4,3-d]pyrimidin-7-one] | > 63.1 | 
7.94 | COC(c1ccccc1)c1nc2c(C(C)C)n[nH]c2c(=O)[nH]1 (racemic) [compound 15, (racemic)-3-Isopropyl-5-(methoxy(phenyl)methyl)-1,6-dihydro-7H-pyrazolo[4,3-d]pyrimidin-7-one] | > 63.1 | fold decreased antimalarial potency compared to 3 [1]: 5- to 25 fold
7.94 | CC(C)c1n[nH]c2c(=O)[nH]c(-c3ccc(N4CCN(C)CC4)cc3)nc12 [compound 7, 3-Isopropyl-5-(4-(4-methylpiperazin-1-yl)phenyl)-1,6-dihydro-7H-pyrazolo[4,3-d]pyrimidin-7-one] | > 39.8 | 
1.26 | CC(C)c1n[nH]c2c(=O)[nH]c(Cc3ccccc3)nc12 [compound 3, 5-Benzyl-3-isopropyl-1,6-dihydro-7H-pyrazolo[4,3-d]pyrimidin-7-one] | > 63.1 | 
1.58 | CC(C)c1n[nH]c2c(=O)[nH]c(C3(c4ccccc4)CCC3)nc12 [compound 17, 3-Isopropyl-5-(1-phenylcyclobutyl)-1,6-dihydro-7H-pyrazolo[4,3-d]pyrimidin-7-one] | 25.1 | 
0.794 | CC(C)c1n[nH]c2c(=O)[nH]c(C3CCCC3)nc12 [compound 22, 5-Cyclopentyl-3-isopropyl-1,6-dihydro-7H-pyrazolo[4,3-d]pyrimidin-7-one] | > 63.1 | 
3.16 | CC(C)c1n[nH]c2c(=O)[nH]c(C3(c4ccccc4)CC3)nc12 [compound 16, 3-Isopropyl-5-(1-phenylcyclopropyl)-1,6-dihydro-7H-pyrazolo[4,3-d]pyrimidin-7-one] | > 63.1 | fold decreased antimalarial potency compared to 3 [1]: 5- to 25 fold
> 50.1 | CC(C)c1n[nH]c2c(=O)[nH]c(-c3ccc(N4CCCCC4)cc3)nc12 [compound 8, 3-Isopropyl-5-(4-(piperidin-1-yl)phenyl)-1,6-dihydro-7H-pyrazolo[4,3-d]pyrimidin-7-one] | > 63.1 | 
